The test system of one experiment is Mus musculus. The experiment is described as follows: Antiinflammatory activity in mouse assessed as reduction in PMA induced ear edema topically administered per ear and measured after 200 mins. It is filed as functional.
Experiment [1] concerns Microglia. The experiment is described as follows: Antiinflammatory activity against LPS-induced rat Primary neonatal microglia assessed as inhibition in TXB2 generation preincubated for 20 mins followed by PMA-stimulation and measured after 70 mins by immunoassay. It is filed as functional, cell-based.
For experiment [2], the system named is Microglia. The experiment can be described thus: Antiinflammatory activity against LPS-induced rat Primary neonatal microglia assessed as inhibition in superoxide anion generation preincubated for 20 mins followed by PMA-stimulation and measured after 70 mins by spectrophotometric method. In kind it is functional, cell-based.

Calls of active or inactive are those of the source. No cut-off for these calls is given here.

`COC(=O)c1ccc2c(c1)C[C@H]1[C@]3(C)C[C@@H](O)[C@H]4C(C)(C)CC[C@@H](O)[C@]4(C)[C@H]3CC[C@]1(C)O2` [TOLYPODIOL]: the ED50 with Mus musculus was 30 µg. Regarding `COC(=O)c1ccc2c(c1)C[C@H]1[C@]3(C)C[C@@H](O)[C@H]4C(C)(C)CC[C@@H](O)[C@]4(C)[C@H]3[C@@H](O)C[C@]1(C)O2`, the IC50 in the experiment on Microglia [1] was found to be 100 nM. Further, the inhibition result in the experiment on Microglia [2] was “inactive”. As to `CC(C(=O)O)c1ccc(-c2ccccc2)c(F)c1` (stereo not given) [FLURBIPROFEN], the IC50 in the experiment with Microglia [1] is 100 nM. For the compound `C[C@]12CCC(=O)C=C1CC[C@@H]1[C@@H]2[C@@H](O)C[C@@]2(C)[C@H]1CC[C@]2(O)C(=O)CO` [HYDROCORTISONE], the ED50 in the experiment on Mus musculus was 20 µg.

One may read the IC50 as the concentration that gives 50% inhibition.

These data come from ChEMBL document CHEMBL4616651, “6-Deoxy- and 11-Hydroxytolypodiols: Meroterpenoids from the Cyanobacterium HT-58-2” (J Nat Prod, 2020).
